Measured values from PMC11755336 (Journal of Pharmaceutical Analysis, 2024).
Where two headings read alike, the source gives them in different places.

Legend:
[1] = rats, oral KXS 10 mL/kg (4 g/mL), 8 days
[2] = test system: BV2 cells; test: Aβ phagocytosis assay in BV2 cells; format: cell-based, mice; settings: versus control group
[3] = biological target: MAO-A (Homo sapiens, UniProt P21397); test: MAO-A inhibition rate, enhanced Weissbach's method; format: biochemical
[4] = biological target: AChE (Homo sapiens, UniProt P22303); test: biochemical; format: biochemical
[5] = biological target: AChE (Electrophorus electricus, UniProt O42275); test: biochemical; format: binding
Chain of AChE (Electrophorus electricus, UniProt O42275) (O42275 24-633): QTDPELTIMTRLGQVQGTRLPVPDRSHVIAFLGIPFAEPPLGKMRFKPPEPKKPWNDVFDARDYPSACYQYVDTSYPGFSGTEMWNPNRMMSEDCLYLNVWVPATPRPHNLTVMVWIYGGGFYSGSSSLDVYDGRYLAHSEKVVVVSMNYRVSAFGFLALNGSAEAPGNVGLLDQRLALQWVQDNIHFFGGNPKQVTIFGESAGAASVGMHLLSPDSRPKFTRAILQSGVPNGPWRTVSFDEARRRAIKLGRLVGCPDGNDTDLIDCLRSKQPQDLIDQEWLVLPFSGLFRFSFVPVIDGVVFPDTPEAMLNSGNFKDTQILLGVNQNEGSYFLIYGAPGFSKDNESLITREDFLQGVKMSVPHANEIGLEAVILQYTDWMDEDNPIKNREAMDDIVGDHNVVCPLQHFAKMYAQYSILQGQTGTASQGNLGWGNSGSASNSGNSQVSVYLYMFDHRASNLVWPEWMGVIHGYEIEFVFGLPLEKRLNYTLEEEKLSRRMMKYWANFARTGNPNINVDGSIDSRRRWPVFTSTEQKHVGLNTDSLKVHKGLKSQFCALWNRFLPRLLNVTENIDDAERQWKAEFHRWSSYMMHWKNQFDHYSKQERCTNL

[6] = biological target: recombinant MAO-A from human (Homo sapiens, UniProt P21397); test: SPR affinity detection with MAO-A; format: binding
Chain of recombinant MAO-A from human (P21397 whole entry): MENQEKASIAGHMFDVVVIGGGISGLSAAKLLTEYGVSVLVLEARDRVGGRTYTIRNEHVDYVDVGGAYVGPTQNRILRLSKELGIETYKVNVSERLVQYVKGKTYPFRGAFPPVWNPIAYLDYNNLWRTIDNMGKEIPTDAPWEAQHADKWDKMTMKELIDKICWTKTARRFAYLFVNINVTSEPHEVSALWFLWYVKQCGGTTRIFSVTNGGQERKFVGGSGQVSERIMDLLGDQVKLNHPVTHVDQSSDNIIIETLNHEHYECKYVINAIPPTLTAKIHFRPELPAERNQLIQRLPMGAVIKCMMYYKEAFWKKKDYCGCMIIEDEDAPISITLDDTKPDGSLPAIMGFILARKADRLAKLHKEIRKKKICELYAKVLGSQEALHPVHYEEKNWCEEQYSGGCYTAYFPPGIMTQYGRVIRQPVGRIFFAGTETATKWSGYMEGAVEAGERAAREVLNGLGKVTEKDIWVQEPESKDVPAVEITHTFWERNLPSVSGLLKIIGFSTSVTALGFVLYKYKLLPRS

Chain of MAO-A (P21397 whole entry): as above

For `C/C=C\c1cc(OC)c(OC)cc1OC` [β-asarone], the “detection in brain tissue” value [1] was “found in brain samples” and the “phagocytic ability of BV2 cells towards FITC-Aβ1−42 (fluorescence intensity)” value (“phagocytic ability” for short) [2] was “notable improvements in phagocytic activity”.
In the case of `C#CCN(C)CCCOc1ccc(Cl)cc1Cl` [Clorgyline, reference compound], the “MAO-A inhibition rate (in words)” value [3] is reported as “highest inhibition rate”.
For `CC1=CCC(O)(C(C)C)CC1` (stereo not shown) [terpinen-4-ol], the “phagocytic ability” value [2] was “effectively enhanced the phagocytic capability” and the “phagocytic ability” value ([2]; listed as terpiene-4-ol) was “weaker phagocytic ability”.
In the case of `CCCCCCCCCCCCCCCC(=O)OC` [methyl palmitate], the AChE inhibition rate [4] is reported as “exceeding 80%” and the “phagocytic ability” value [2] is reported as “effectively enhanced the phagocytic capability”.
With `CC(C)(C)c1ccc(O)c(C(C)(C)C)c1` [2,4-Di-tert-butylphenol] the Kd [5] was 0.133 µM, the IC50 [4] was 4.51 ± 0.191 µM and the “AChE inhibitory rate compared with galantamine” value ([4]; 25 μM) was “surpassed that of galantamine”. For the same compound, the “phagocytic ability” value [2] was “notable improvements in phagocytic activity”.
For `COc1cc2c(=O)c3c(O)c([C@@H]4O[C@H](CO)[C@@H](O)[C@H](O)[C@H]4O)c(O)cc3oc2cc1O` [7-O-methylmangiferin], the Kd ([5]; read-out: AChE Affinity KD) was 16.9 µM, the “inhibitory effect on AChE (in words)” value [4] was “relatively low” and the IC50 ([4]; read-out: AChE IC50) was 2.98 ± 0.245 µM.
For `C/C=C/c1ccc(OC)c(OC)c1` [Methyl isoeugenol], the Kd [5] was 0.0185 µM, the IC50 [4] was 9.68 ± 0.353 µM and the “phagocytic ability” value [2] was “weaker phagocytic ability”.
With `C=CCc1cc(OC)c(OC)c(OC)c1` [Elemicin] the Kd [6] was 4.69 µM, the IC50 [3] was 62.2 ± 1.08 µM and the “MAO-A inhibition rate (in words)” value ([3]; concentrations up to 50 μM) was “comparable inhibition rate”. For the same compound, the “phagocytic ability” value [2] was “significantly enhanced phagocytic ability”.
In the case of `CC12CCC(CC1=O)C2(C)C` (stereo not shown) [Camphor], the Kd [5] is reported as 0.0251 µM, the AChE inhibition rate [4] is reported as “exceeding 80%” and the IC50 [4] is reported as 6.23 ± 0.567 µM. The “phagocytic ability” value [2] was “effectively enhanced the phagocytic capability”.
For `C/C=C/c1cc(OC)c(OC)cc1OC` [α-asarone], the “detection in brain tissue” value [1] was “found in brain samples” and the “phagocytic ability” value [2] was “notable improvements in phagocytic activity”.
In the case of `C=CCc1ccc(OC)cc1` [Estragole], the Kd [6] is reported as 2.35 µM, the IC50 [3] is reported as 144 ± 7.43 µM and the “phagocytic ability” value [2] is reported as “notable improvements in phagocytic activity”.
With `C=CCc1ccc(OC)c(OC)c1` [Methyl eugenol] the Kd [6] was 5.83 µM, the IC50 [3] was 96.1 ± 9.87 µM and the “phagocytic ability” value [2] was “weaker phagocytic ability”.
With `O=c1c2cc(O)ccc2oc2cc(O)c([C@@H]3O[C@H](CO)[C@@H](O)[C@H](O)[C@H]3O[C@@H]3OC[C@](O)(CO)[C@H]3O)c(O)c12` [Sibiricaxanthone B] the Kd ([5]; read-out: AChE Affinity KD) was 1.2 µM.
